Measured values published in patent US11453660B2, “Androgen receptor and glucocorticoid receptor modulators” (ONCOSTELLAE, S.L., priority 2017, dated 2022).

These compounds were tested against T1, Human Glucocorticoid Receptor (Homo sapiens, UniProt P04150) (assay: Competition Binding in IM-9 Human Glucocorticoid Receptor (GR IM-9)). Settings: cytosol from IM-9 cell line, 1.5 nM [3H]-Dexamethasone, 4° C. for 6 hours.
T1 construct: endogenous in cells; host or cells: cytosol from IM-9 cell line
T1 sequence (P04150 1-777): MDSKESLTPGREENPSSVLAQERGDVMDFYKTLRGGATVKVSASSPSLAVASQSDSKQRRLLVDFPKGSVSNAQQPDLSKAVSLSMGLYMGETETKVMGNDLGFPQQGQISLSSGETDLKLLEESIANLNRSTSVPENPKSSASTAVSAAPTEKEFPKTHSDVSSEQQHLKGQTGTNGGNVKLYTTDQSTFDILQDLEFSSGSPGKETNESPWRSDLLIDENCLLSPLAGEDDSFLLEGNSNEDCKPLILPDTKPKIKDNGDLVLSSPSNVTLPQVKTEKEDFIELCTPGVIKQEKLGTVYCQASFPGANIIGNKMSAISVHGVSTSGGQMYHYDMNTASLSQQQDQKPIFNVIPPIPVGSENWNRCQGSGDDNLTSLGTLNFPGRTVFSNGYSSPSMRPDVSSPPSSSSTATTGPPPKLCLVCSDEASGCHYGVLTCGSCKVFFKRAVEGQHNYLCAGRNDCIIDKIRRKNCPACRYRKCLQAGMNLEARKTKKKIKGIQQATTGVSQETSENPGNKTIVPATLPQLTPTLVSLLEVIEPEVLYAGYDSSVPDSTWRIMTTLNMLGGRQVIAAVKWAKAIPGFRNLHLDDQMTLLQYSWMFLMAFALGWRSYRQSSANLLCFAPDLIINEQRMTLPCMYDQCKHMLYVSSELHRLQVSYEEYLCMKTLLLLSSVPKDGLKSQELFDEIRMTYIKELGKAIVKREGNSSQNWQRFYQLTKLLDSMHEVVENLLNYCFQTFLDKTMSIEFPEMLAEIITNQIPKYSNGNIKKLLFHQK
Experimental: Competition Binding in IM-9 Human Glucocorticoid Receptor (GR IM-9)
Glucocorticoid receptor competition binding assays were carried out in a polypropilene 96-well plate. In each well was incubated 100 μg of cytosol from IM-9 cell line, 1.5 nM [3H]-Dexamethasone (71 Ci/mmol, 1 mCi/ml, Perkin Elmer NET1192001MC) and compounds studied and standard. Non-specific binding was determined in the presence of Triamcinolone 10 μM (Sigma Aldrich T6376).
The reaction mixture (Vt: 200 μl/well) was incubated at 4° C. for 6 hours, 180 μL was transferred to GF/B 96-well plate (Millipore, Madrid, Spain) pretreated with 0.5% of PEI and treated with binding buffer (TES 10 mM, sodium molybdate 10 mM, EDTA 1 mM, pH 7.4, 2-mercaptoethanol 20 mM, Glycerol 10%) after was filtered and washed six times with 250 μl wash buffer (TES 10 mM, sodium molybdate 10 mM, EDTA 1 mM, pH 7.4, 2-mercaptoethanol 20 mM Glycerol 10%), before measuring in a microplate beta scintillation counter (Microbeta Trilux, PerkinElmer, Madrid, Spain).

SMILES	IC50 [nM]
COC(=O)C1=C(COCCN)NC(C)=C(C(C)=O)C1c1csc2ccccc12 (stereo not drawn) [Example C114, Methyl 5-acetyl-2-((2-aminoethoxy)methyl)-4-(benzo[b]thiophen-3-yl)-6-methyl-1,4-dihydropyridine-3-carboxylate]	≥ 1000
COC(=O)C1=C(COCCN)NC(C)=C(C(C)=O)C1c1csc2c(C#N)cccc12 (stereo not drawn) [Example C116, Methyl 5-acetyl-2-((2-aminoethoxy)methyl)-4-(7-cyanobenzo[b]thiophen-3-yl)-6-methyl-1,4-dihydropyridine-3-carboxylate]	100 to 1000
COC(=O)C1=C(N)NC(C)=C(C(C)=O)C1c1csc2c(C#N)cccc12 (stereo not drawn) [Example D5, Methyl 5-acetyl-2-amino-4-(7-cyanobenzo[b]thiophen-3-yl)-6-methyl-1,4-dihydropyridine-3-carboxylate]	< 100
CC(=O)C1=C(C)NC(N)=C(C(=O)OC2CCCC2)C1c1csc2c(C#N)cccc12 (stereo not drawn) [Example D8, Cyclopentyl 5-acetyl-2-amino-4-(7-cyanobenzo[b]thiophen-3-yl)-6-methyl-1,4-dihydropyridine-3-carboxylate]	< 100
CC(=O)C1=C(C)NC(N)=C(C(=O)OCC2CC2)C1c1csc2c(C#N)cccc12 (stereo not drawn) [Example D10, Cyclopropylmethyl 5-acetyl-2-amino-4-(7-cyanobenzo[b]thiophen-3-yl)-6-methyl-1,4-dihydropyridine-3-carboxylate]	< 100
COC(=O)C1=C(N)NC(C)=C(C#N)C1c1csc2c(C#N)cccc12 (stereo not drawn) [Example D12, Methyl 2-amino-5-cyano-4-(7-cyanobenzo[b]thiophen-3-yl)-6-methyl-1,4-dihydropyridine-3-carboxylate]	< 100
CC(=O)C1=C(C)NC(N)=C(C(=O)OCc2ccc(F)cc2)C1c1csc2c(C#N)cccc12 (stereo not drawn) [Example D13, 4-fluorobenzyl 5-acetyl-2-amino-4-(7-cyanobenzo[b]thiophen-3-yl)-6-methyl-1,4-dihydropyridine-3-carboxylate]	< 100
COC(=O)C1=C(N)NC(C)=C(C(C)=O)C1c1csc2ncc(F)cc12 (stereo not drawn) [Example D14, Methyl 5-acetyl-2-amino-4-(5-fluorothieno[2,3-b]pyridin-3-yl)-6-methyl-1,4-dihydropyridine-3-carboxylate]	≥ 1000
COC(=O)C1=C(N)NC(C2CC2)=C(C(=O)OC)C1c1csc2c(C#N)cccc12 (stereo not drawn) [Example D18, Dimethyl 2-amino-4-(7-cyanobenzo[b]thiophen-3-yl)-6-cyclopropyl-1,4-dihydropyridine-3,5-dicarboxylate]	< 100
COC(=O)C1=C(C2CC2)NC(N)=C(C(=O)OCC2CC2)C1c1csc2c(C#N)cccc12 (stereo not drawn) [Example D19, 3-(cyclopropylmethyl) 5-methyl 2-amino-4-(7-cyanobenzo[b]thiophen-3-yl)-6-cyclopropyl-1,4-dihydropyridine-3,5-dicarboxylate]	< 100
COC(=O)C1=C(N)NC(N)=C(C(=O)OC)C1c1csc2c(C#N)cccc12 [Example D20, dimethyl 2,6-diamino-4-(7-cyanobenzo[b]thiophen-3-yl)-1,4-dihydropyridine-3,5-dicarboxylate]	100 to 1000
COC(=O)C1=C(N)NC(C2CC2)=C(C(=O)OCC2CC2)C1c1csc2c(C#N)cccc12 (stereo not drawn) [Example D21, 5-(cyclopropylmethyl) 3-methyl 2-amino-4-(7-cyanobenzo[b]thiophen-3-yl)-6-cyclopropyl-1,4-dihydropyridine-3,5-dicarboxylate]	< 100
CC(=O)C1=C(C)NC(N)=C(C(=O)OCC2CC2)C1c1csc2cc(C#N)ccc12 (stereo not drawn) [Example D28, Cyclopropylmethyl 5-acetyl-2-amino-4-(6-cyanobenzo[b]thiophen-3-yl)-6-methyl-1,4-dihydropyridine-3-carboxylate]	100 to 1000
COC(=O)C1=C(C)NC(N)=C(C(=O)OCC2CC2)C1c1csc2c(C#N)cc(C#N)cc12 (stereo not drawn) [Example D48, 3-(Cyclopropylmethyl) 5-methyl 2-amino-4-(5,7-dicyanobenzo[b]thiophen-3-yl)-6-methyl-1,4-dihydropyridine-3,5-dicarboxylate]	< 100
CC1=C(C(=O)OCC(F)(F)F)C(c2csc3c(C#N)cccc23)C(C(=O)OCC2CC2)=C(N)N1 (stereo not drawn) [Example D51, 3-(Cyclopropylmethyl) 5-(2,2,2-trifluoroethyl) 2-amino-4-(7-cyanobenzo[b]thiophen-3-yl)-6-methyl-1,4-dihydropyridine-3,5-dicarboxylate]	< 100
COC(=O)C1=C(C)NC(N)=C(C(=O)OCC(C)(C)F)C1c1csc2c(C#N)cccc12 (stereo not drawn) [Example D53, 3-(2-Fluoro-2-methylpropyl) 5-methyl 2-amino-4-(7-cyanobenzo[b]thiophen-3-yl)-6-methyl-1,4-dihydropyridine-3,5-dicarboxylate]	< 100
COC(=O)C1=C(C)NC(N)=C(C(=O)OCC2CC2)C1c1csc2c(C#N)c(C(F)(F)F)ccc12 (stereo not drawn) [Example D54, 3-(Cyclopropylmethyl) 5-methyl 2-amino-4-(7-cyano-6-(trifluoromethyl)benzo[b]thiophen-3-yl)-6-methyl-1,4-dihydropyridine-3,5-dicarboxylate]	< 100
C#CCOC(=O)C1=C(N)NC(C)=C(C(=O)OC)C1c1csc2c(C#N)cccc12 (stereo not drawn) [Example D55, 5-Methyl 3-prop-2-yn-1-yl 2-amino-4-(7-cyanobenzo[b]thiophen-3-yl)-6-methyl-1,4-dihydropyridine-3,5-dicarboxylate]	< 100

More lines, now with the values ahead:

IC50 [nM]	SMILES
≥ 1000	COC(=O)C1=C(COCCN)NC(C)=C(C(C)=O)C1c1csc2c(Br)cccc12 (stereo not drawn) [Example C115, Methyl 5-acetyl-2-((2-aminoethoxy)methyl)-4-(7-bromobenzo[b]thiophen-3-yl)-6-methyl-1,4-dihydropyridine-3-carboxylate]
< 100	CC(=O)C1=C(C)NC(N)=C(C(=O)OC2CCC(F)(F)CC2)C1c1csc2c(C#N)cccc12 (stereo not drawn) [Example D11, 4,4-difluorocyclohexyl 5-acetyl-2-amino-4-(7-cyanobenzo[b]thiophen-3-yl)-6-methyl-1,4-dihydropyridine-3-carboxylate]
100 to 1000	COC(=O)C1=C(NC(C)=O)NC(C)=C(C(C)=O)C1c1csc2ncc(F)cc12 (stereo not drawn) [Example D15, Methyl 2-acetamido-5-acetyl-4-(5-fluorothieno[2,3-b]pyridin-3-yl)-6-methyl-1,4-dihydropyridine-3-carboxylate]
< 100	CC(=O)C1=C(C)NC(N)=C(C(=O)OCC2CCCC2)C1c1csc2c(C#N)cccc12 (stereo not drawn) [Example D16, Cyclopentylmethyl 5-acetyl-2-amino-4-(7-cyanobenzo[b]thiophen-3-yl)-6-methyl-1,4-dihydropyridine-3-carboxylate]
< 100	COC(=O)C1=C(C)NC(N)=C(C(=O)OCC2CC2)C1c1csc2c(C#N)cccc12 (stereo not drawn) [Example D17, 3-(cyclopropylmethyl) 5-methyl 2-amino-4-(7-cyanobenzo[b]thiophen-3-yl)-6-methyl-1,4-dihydropyridine-3,5-dicarboxylate]
< 100	COC(=O)C1=C(C)NC(N)=C(C(=O)OCC2CC2)C1c1csc2c(C#N)ccnc12 (stereo not drawn) [Example D44, 3-(Cyclopropylmethyl) 5-methyl 2-amino-4-(7-cyanothieno[3,2-b]pyridin-3-yl)-6-methyl-1,4-dihydropyridine-3,5-dicarboxylate]
< 100	COC(=O)C1=C(C)NC(N)=C(C(=O)OCC(F)(F)F)C1c1csc2c(C#N)cccc12 (stereo not drawn) [Example D50, 5-Methyl 3-(2,2,2-trifluoroethyl) 2-amino-4-(7-cyanobenzo[b]thiophen-3-yl)-6-methyl-1,4-dihydropyridine-3,5-dicarboxylate]
< 100	COC(=O)C1=C(C)NC(N)=C(C(=O)OCC2CC2)C1c1csc2c(C#N)c(Cl)ccc12 (stereo not drawn) [Example D52, 3-(Cyclopropylmethyl) 5-methyl 2-amino-4-(6-chloro-7-cyanobenzo[b]thiophen-3-yl)-6-methyl-1,4-dihydropyridine-3,5-dicarboxylate]
< 100	COC(=O)C1=C(C(F)(F)F)NC(N)=C(C(=O)OCC2CC2)C1c1csc2c(C#N)cccc12 (stereo not drawn) [Example D56, 3-(Cyclopropylmethyl) 5-methyl 2-amino-4-(7-cyanobenzo[b]thiophen-3-yl)-6-(trifluoromethyl)-1,4-dihydropyridine-3,5-dicarboxylate]
